# PubChem BioAssay (NCI)
#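 Method: 48-hour compound exposure of cells in 96-well plates, five concentrations, linear interpolation of endpoints. At the GI50, growth is halved. At the TGI there is no net growth.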
# How the values were obtained:
# Assay in all cases: growth of human tumour cells (NCI), 48 h
# M14 melanoma = system: M14 melanoma
# CCRF-CEM leukemia = system: CCRF-CEM leukemia
# SNB-75 CNS = system: SNB-75 CNS
# COLO 205 colon = system: COLO 205 colon
# SK-MEL-28 melanoma = system: SK-MEL-28 melanoma
# 786-0 renal = system: 786-0 renal
# HCC-2998 colon = system: HCC-2998 colon
# UACC-62 melanoma = system: UACC-62 melanoma
# PC-3 prostate = system: PC-3 prostate
# UACC-257 melanoma = system: UACC-257 melanoma
# DU-145 prostate = system: DU-145 prostate
# NCI-H460 lung = system: NCI-H460 lung
# RPMI-8226 leukemia = system: RPMI-8226 leukemia
# RXF 393 renal = system: RXF 393 renal
# HCT-15 colon = system: HCT-15 colon
# NCI-H522 lung = system: NCI-H522 lung
# CAKI-1 renal = system: CAKI-1 renal
# SNB-19 CNS = system: SNB-19 CNS
# SF-539 CNS = system: SF-539 CNS
# SK-MEL-5 melanoma = system: SK-MEL-5 melanoma
# MALME-3M melanoma = system: MALME-3M melanoma
# HL-60(TB) leukemia = system: HL-60(TB) leukemia
# HOP-92 NSCLC = system: HOP-92 NSCLC
# OVCAR-8 ovarian = system: OVCAR-8 ovarian
# U251 CNS = system: U251 CNS
# MOLT-4 leukemia = system: MOLT-4 leukemia
# HT29 colon = system: HT29 colon
# SF-268 CNS = system: SF-268 CNS
# SN12C renal = system: SN12C renal
# KM12 colon = system: KM12 colon
# UO-31 renal = system: UO-31 renal
# SW-620 colon = system: SW-620 colon
# IGROV1 ovarian = system: IGROV1 ovarian
# TK-10 renal = system: TK-10 renal
# OVCAR-5 ovarian = system: OVCAR-5 ovarian
# HOP-62 NSCLC = system: HOP-62 NSCLC
# LOX IMVI melanoma = system: LOX IMVI melanoma
# SK-MEL-2 melanoma = system: SK-MEL-2 melanoma
# HCT-116 colon = system: HCT-116 colon
# K-562 leukemia = system: K-562 leukemia
# NCI/ADR-RES ovarian = system: NCI/ADR-RES ovarian
# OVCAR-3 ovarian = system: OVCAR-3 ovarian
# BT-549 breast = system: BT-549 breast
# HS 578T breast = system: HS 578T breast
# SF-295 CNS = system: SF-295 CNS
# EKVX NSCLC = system: EKVX NSCLC
# ACHN renal = system: ACHN renal
# NCI-H23 lung = system: NCI-H23 lung
# MCF7 breast = system: MCF7 breast
# SK-OV-3 ovarian = system: SK-OV-3 ovarian
# T-47D breast = system: T-47D breast
# MDA-MB-231 breast = system: MDA-MB-231 breast
# NCI-H226 lung = system: NCI-H226 lung
# A549 NSCLC = system: A549 NSCLC
# MDA-MB-435 = system: MDA-MB-435
smiles,measurement,setting,value
O=C(O)[C@@H]1CCCCN1Cc1cc2cc3c(cc2c2cc(OCc4ccccc4)ccc12)OCO3,GI50,M14 melanoma,16.5 µM
same,TGI,M14 melanoma,30.4 µM
same,GI50,CCRF-CEM leukemia,14.9 µM
same,TGI,CCRF-CEM leukemia,> 100 µM
same,GI50,SNB-75 CNS,2.96 µM
same,TGI,SNB-75 CNS,8.91 µM
same,GI50,COLO 205 colon,3.05 µM
same,TGI,COLO 205 colon,15.8 µM
same,GI50,SK-MEL-28 melanoma,2.21 µM
same,TGI,SK-MEL-28 melanoma,7.28 µM
same,GI50,786-0 renal,18.9 µM
same,TGI,786-0 renal,44.9 µM
same,GI50,HCC-2998 colon,19.3 µM
same,TGI,HCC-2998 colon,33.6 µM
same,GI50,UACC-62 melanoma,1.49 µM
same,TGI,UACC-62 melanoma,3.08 µM
same,GI50,PC-3 prostate,16.4 µM
same,TGI,PC-3 prostate,38.3 µM
same,GI50,UACC-257 melanoma,3.4 µM
same,TGI,UACC-257 melanoma,12 µM
same,GI50,DU-145 prostate,5.19 µM
same,TGI,DU-145 prostate,> 100 µM
same,GI50,NCI-H460 lung,1.49 µM
same,TGI,NCI-H460 lung,3.39 µM
same,GI50,RPMI-8226 leukemia,24 µM
same,TGI,RPMI-8226 leukemia,77.4 µM
same,GI50,RXF 393 renal,6.05 µM
same,TGI,RXF 393 renal,22.6 µM
same,GI50,HCT-15 colon,3.27 µM
same,TGI,HCT-15 colon,13.7 µM
same,GI50,NCI-H522 lung,4.89 µM
same,TGI,NCI-H522 lung,18.4 µM
same,GI50,CAKI-1 renal,3.6 µM
same,TGI,CAKI-1 renal,33.7 µM
same,GI50,SNB-19 CNS,2.31 µM
same,TGI,SNB-19 CNS,8.86 µM
same,GI50,SF-539 CNS,3.87 µM
same,TGI,SF-539 CNS,16.6 µM
same,GI50,SK-MEL-5 melanoma,1.62 µM
same,TGI,SK-MEL-5 melanoma,3.61 µM
same,GI50,MALME-3M melanoma,2.8 µM
same,TGI,MALME-3M melanoma,9.41 µM
same,GI50,HL-60(TB) leukemia,> 100 µM
same,TGI,HL-60(TB) leukemia,> 100 µM
same,GI50,HOP-92 NSCLC,14.7 µM
same,TGI,HOP-92 NSCLC,41.5 µM
same,GI50,OVCAR-8 ovarian,6.62 µM
same,TGI,OVCAR-8 ovarian,29 µM
same,GI50,U251 CNS,3.8 µM
same,TGI,U251 CNS,15.2 µM
same,GI50,MOLT-4 leukemia,63.3 µM
same,TGI,MOLT-4 leukemia,> 100 µM
same,GI50,HT29 colon,3.24 µM
same,TGI,HT29 colon,15.8 µM
same,GI50,SF-268 CNS,2.98 µM
same,TGI,SF-268 CNS,21.2 µM
same,GI50,SN12C renal,2 µM
same,TGI,SN12C renal,7.8 µM
same,GI50,KM12 colon,4.24 µM
same,TGI,KM12 colon,25.5 µM
same,GI50,UO-31 renal,4.77 µM
same,TGI,UO-31 renal,17.4 µM
same,GI50,SW-620 colon,1.84 µM
same,TGI,SW-620 colon,13.8 µM
same,GI50,IGROV1 ovarian,6.53 µM
same,TGI,IGROV1 ovarian,21.4 µM
same,GI50,TK-10 renal,3.36 µM
same,TGI,TK-10 renal,> 100 µM
same,GI50,OVCAR-5 ovarian,19.2 µM
same,TGI,OVCAR-5 ovarian,44 µM
same,GI50,HOP-62 NSCLC,16.1 µM
same,TGI,HOP-62 NSCLC,31.6 µM
same,GI50,LOX IMVI melanoma,1.75 µM
same,TGI,LOX IMVI melanoma,3.56 µM
same,GI50,SK-MEL-2 melanoma,15.6 µM
same,TGI,SK-MEL-2 melanoma,37.4 µM
same,GI50,HCT-116 colon,17.4 µM
same,TGI,HCT-116 colon,31.1 µM
same,GI50,K-562 leukemia,36.7 µM
same,TGI,K-562 leukemia,> 100 µM
same,GI50,NCI/ADR-RES ovarian,19.3 µM
same,TGI,NCI/ADR-RES ovarian,39.6 µM
same,GI50,OVCAR-3 ovarian,6.79 µM
same,TGI,OVCAR-3 ovarian,36.2 µM
same,GI50,BT-549 breast,2.97 µM
same,TGI,BT-549 breast,8.88 µM
same,GI50,HS 578T breast,2.29 µM
same,TGI,HS 578T breast,6.94 µM
same,GI50,SF-295 CNS,1.95 µM
same,TGI,SF-295 CNS,8.3 µM
same,GI50,EKVX NSCLC,4.42 µM
same,TGI,EKVX NSCLC,25.3 µM
same,GI50,ACHN renal,2.73 µM
same,TGI,ACHN renal,10.3 µM
same,GI50,NCI-H23 lung,21.6 µM
same,TGI,NCI-H23 lung,45.7 µM
same,GI50,MCF7 breast,2.05 µM
same,TGI,MCF7 breast,16.5 µM
same,GI50,SK-OV-3 ovarian,6.47 µM
same,TGI,SK-OV-3 ovarian,34.3 µM
same,GI50,T-47D breast,2.97 µM
same,TGI,T-47D breast,29.5 µM
same,GI50,MDA-MB-231 breast,1.9 µM
same,TGI,MDA-MB-231 breast,6.21 µM
same,GI50,NCI-H226 lung,2.09 µM
same,TGI,NCI-H226 lung,5.7 µM
same,GI50,A549 NSCLC,3.74 µM
same,TGI,A549 NSCLC,15.1 µM
same,GI50,MDA-MB-435,3.4 µM
same,TGI,MDA-MB-435,17.5 µM
